According to US10907208B2, “Method for screening agents promoting skin barrier function and method for evaluating skin barrier function taking epidermal serine racemase and/or D-serine level as indicator” (Shiseido Company, Ltd, priority 2014, dated 2021):

Experiments:
Type in all cases: cell-based, human
fillagrin (FLG) gene = assay: Real-time PCR gene expression in three-dimension culture of keratinocytes (3D skin model), fillagrin; conditions: D-Ser 100 μM, 7 days, corrected by MRPL19, FIG. 5
Protocol: (§1) Human normal keratinocytes were seeded on polycarbonate insert (Millipore) having 12 mm of diameter and 0.4 μm of bore diameter. Then, Human normal keratinocytes were cultured for three days under 5% CO2 atmosphere at 37° C. by adding Cnt-Prime, Epithelial Culture Medium (CELLnTEC Advanced Cell Systems AG) inside and outside of the insert, followed by being cultured for 24 hours by substituting with Cnt-prime 3D Barrier medium (CELLnTEC Advanced Cell Systems AG). […]
(§2) Total RNA extracted by means of Trizol reagent (Invitrogen) was subjected to NanoDrop 1000 Spectrophotometer (Thermo Fisher Scientific) to determine RNA concentration, and then was converted to cDNA by using SuperScriptVIL0 (Invitrogen). Relative expression amount of genes of fillagrin (FLG), cornuline (CRNN) and repetin (RPTN), and mitochondrial ribosome protein L19 (MRPL19) which was used as an internal control gene was determined. […]
(§3) Relative expression amount of the target gene of each group was determined by means of correction using the expression amount of mitochondrial ribosome protein L19 gene (MRPL19) as an internal control (FIGS. 5-7). […]

cornuline (CRNN) gene = assay: Real-time PCR gene expression in three-dimension culture of keratinocytes (3D skin model), cornuline; conditions: D-Ser 100 μM, 7 days, corrected by MRPL19, FIG. 6
Protocol: as §1, §2, §3

repetin (RPTN) gene = assay: Real-time PCR gene expression in three-dimension culture of keratinocytes (3D skin model), repetin; conditions: D-Ser 100 μM, 7 days, corrected by MRPL19, FIG. 7
Protocol: as §1, §2, §3

SMILES: N[C@H](CO)C(=O)O [D-serine]
- expression level of fillagrin gene (fillagrin (FLG) gene): increases
- expression level of fillagrin gene (fillagrin (FLG) gene; listed as D-Ser): increased
- expression level of cornuline gene (cornuline (CRNN) gene): increases
- expression level of cornuline gene (cornuline (CRNN) gene; listed as D-Ser): increased
- expression level of repetin gene (repetin (RPTN) gene): increases
- expression level of repetin gene (repetin (RPTN) gene; listed as D-Ser): increased
